Assay results taken from US6828139B2, “Production of replicative hepatitis C virus” (priority 2000, dated 2004).
Counter-ions that a name gives are not always drawn.

Tested on: HCV (−) RNA synthesis
Experiment: HCV (−) strand RNA synthesis in the inducible HCV replication system, RNase protection assay
Assay type: cell-based, hepatitis C virus (genotype 1a, strain H77) in CV-1 cells
Design: inhibitory effect on HCV (−) RNA synthesis: dose or concentration left out as unconfirmed
Conditions: for results on HCV (−) RNA synthesis with changed time of addition: drug given 0 and 12 hours before vTF7-3 infection, compared with 20 hours

## NC(=O)c1ncn([C@@H]2O[C@H](CO)[C@@H](O)[C@H]2O)n1 [ribavirin]
  results on HCV (−) RNA synthesis with changed time of addition: unchanged
ribavirin, added 20 hours prior to vTF7-3
  inhibitory effect on HCV (−) RNA synthesis: No inhibitory effect

## NC12CC3CC(CC(C3)C1)C2 [amantadine, Amantadine-HCl]
Amantadine 1-100 μg/well, added 20 hours prior to vTF7-3 infection
  activity against HCV (−) strand synthesis: no activity
  results on HCV (−) RNA synthesis with changed time of addition: unchanged
